Results published in PubChem BioAssay (NCI).
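GI50: concentration for 50% inhibition of growth. TGI denotes the concentration required for complete inhibition of growth.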

Assays:
Assay in all cases: NCI-60 cell line screen, 384-well format
[1] = system: T-47D breast
[2] = system: NCI-H23 lung
[3] = system: HCT-116 colon
[4] = system: NCI-H522 lung
[5] = system: SR leukemia
[6] = system: 786-0 renal
[7] = system: NCI/ADR-RES ovarian
[8] = system: NCI-H460 NSCLC
[9] = system: DU-145 prostate
[10] = system: SF-268 CNS
[11] = system: UACC-62 melanoma
[12] = system: SF-539 CNS
[13] = system: SK-OV-3 ovarian
[14] = system: PC-3 prostate
[15] = system: HOP-62 NSCLC
[16] = system: OVCAR-4 ovarian
[17] = system: NCI-H226 lung
[18] = system: MCF7 breast
[19] = system: UO-31 renal
[20] = system: MDA-MB-468 breast
[21] = system: SK-MEL-28 melanoma
[22] = system: TK-10 renal
[23] = system: HOP-92 NSCLC
[24] = system: KM12 colon
[25] = system: OVCAR-3 ovarian
[26] = system: SF-295 CNS
[27] = system: OVCAR-8 ovarian
[28] = system: HT29 colon
[29] = system: SNB-19 CNS
[30] = system: RPMI-8226 leukemia
[31] = system: OVCAR-5 ovarian
[32] = system: SW-620 colon
[33] = system: HL-60(TB) leukemia
[34] = system: IGROV1 ovarian
[35] = system: A549 NSCLC
[36] = system: NCI-H322M lung
[37] = system: HCT-15 colon
[38] = system: CCRF-CEM leukemia
[39] = system: MALME-3M melanoma
[40] = system: UACC-257 melanoma
[41] = system: CAKI-1 renal
[42] = system: SK-MEL-5 melanoma
[43] = system: ACHN renal
[44] = system: MOLT-4 leukemia
[45] = system: M14 melanoma
[46] = system: COLO 205 colon
[47] = system: RXF 393 renal

CS(=O)(=O)CCNCc1ccc(-c2ccc3ncnc(Nc4ccc(OCc5cccc(F)c5)c(Cl)c4)c3c2)o1
GI50 [1]: 605 nM | TGI [1]: 5.69 µM | GI50 [2]: 2070 nM | TGI [2]: 4.07 µM | GI50 [3]: 1850 nM | TGI [3]: 3.45 µM | GI50 [4]: 102 nM | TGI [4]: 1480 nM | GI50 [5]: 2090 nM | TGI [5]: 3.53 µM | GI50 [6]: 1340 nM | TGI [6]: 2620 nM | GI50 [7]: 1560 nM | TGI [7]: 3.47 µM | GI50 [8]: 1860 nM | TGI [8]: 3.29 µM | GI50 [9]: 1390 nM | TGI [9]: 3.38 µM | GI50 [10]: 2630 nM | TGI [10]: 6.97 µM | GI50 [11]: 1950 nM | TGI [11]: 3.43 µM | GI50 [12]: 1820 nM | TGI [12]: 3.22 µM | GI50 [13]: 785 nM | TGI [13]: 5.17 µM | GI50 [14]: 1750 nM | TGI [14]: 3.28 µM | GI50 [15]: 2300 nM | TGI [15]: 4.95 µM | GI50 [16]: 1720 nM | TGI [16]: 3.19 µM | GI50 [17]: 2120 nM | TGI [17]: 4.75 µM | GI50 [18]: 1670 nM | TGI [18]: 3.06 µM | GI50 [19]: 1090 nM | TGI [19]: 3.89 µM | GI50 [20]: 45.2 nM | TGI [20]: 260 nM | GI50 [21]: 1800 nM | TGI [21]: 3.21 µM | GI50 [22]: 644 nM | TGI [22]: 4.5 µM | GI50 [23]: 1370 nM | TGI [23]: 2680 nM | GI50 [24]: 2210 nM | TGI [24]: 3.72 µM | GI50 [25]: 1580 nM | TGI [25]: 2960 nM | GI50 [26]: 1960 nM | TGI [26]: 3.85 µM | GI50 [27]: 1720 nM | TGI [27]: 3.73 µM | GI50 [28]: 1850 nM | TGI [28]: 3.27 µM | GI50 [29]: 4.43 µM | TGI [29]: 9.08 µM | GI50 [30]: 1850 nM | TGI [30]: 3.25 µM | GI50 [31]: 2740 nM | TGI [31]: 7.5 µM | GI50 [32]: 1990 nM | TGI [32]: 3.5 µM | GI50 [33]: 2260 nM | TGI [33]: 3.73 µM | GI50 [34]: 751 nM | TGI [34]: 2870 nM | GI50 [35]: 1360 nM | TGI [35]: 2690 nM | GI50 [36]: 179 nM | TGI [36]: 1140 nM | GI50 [37]: 1450 nM | TGI [37]: 2790 nM | GI50 [38]: 1680 nM | TGI [38]: 3.05 µM | GI50 [39]: 1830 nM | TGI [39]: 3.23 µM | GI50 [40]: 1990 nM | TGI [40]: 3.42 µM | GI50 [41]: 1460 nM | TGI [41]: 2970 nM | GI50 [42]: 1770 nM | TGI [42]: 3.16 µM | GI50 [43]: 398 nM | TGI [43]: 8.09 µM | GI50 [44]: 1490 nM | TGI [44]: 2820 nM | GI50 [45]: 1930 nM | TGI [45]: 3.35 µM | GI50 [46]: 3.78 µM | TGI [46]: 9.05 µM | GI50 [47]: 1460 nM | TGI [47]: 2790 nM
